Experimental data: patent US9615577B2, “Herbicidally active cyclic dione compounds, or derivatives therefor, substituted by a phenyl which has an alkynyl-containing substituent” (Syngenta Limited, priority 2012, dated 2017)

Experiments:
Format in all cases: in vivo
[1] = tested on: Alopecurus myosuroides (ALOMY); assay: Test 1A glasshouse assay for herbicidal activity, pre-emergence; settings: 312 h, 250 g/ha, evaluated after 13 days, read-out: percentage phytotoxicity ALOMY
Method in brief: (§1)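 Damage is rated by eye as percent phytotoxicity on a 0–100 scale, 13 days after treatment. Compound is sprayed in acetone/water (50:50) with 0.5% Tween 20 onto pots one day (pre-emergence) or eight days (post-emergence) after sowing, with plants kept at 24/16 °C and 14 h light.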

[2] = tested on: Amaranthus retroflexus (AMARE); assay: as above; settings: 312 h, 250 g/ha, evaluated after 13 days, read-out: percentage phytotoxicity AMARE
Method in brief: as §1

[3] = tested on: Echinochloa crus-galli (ECHCG); assay: as above; settings: 312 h, 250 g/ha, evaluated after 13 days, read-out: percentage phytotoxicity ECHCG
Method in brief: as §1

[4] = tested on: Ipomoea hederacea (IPOHE); assay: as above; settings: 312 h, evaluated after 13 days, read-out: percentage phytotoxicity IPOHE
Method in brief: as §1

Setaria faberi (SETFA) [5] = assay: as above; settings: 312 h, 250 g/ha, evaluated after 13 days, read-out: percentage phytotoxicity SETFA
Method in brief: as §1

Solanum nigrum (SOLNI) [6] = assay: as above; settings: 312 h, evaluated after 13 days, read-out: percentage phytotoxicity SOLNI
Method in brief: as §1

[7] = tested on: Alopecurus myosuroides (ALOMY); assay: Test 1A glasshouse assay for herbicidal activity, post-emergence; settings: 312 h, 250 g/ha, evaluated after 13 days, read-out: percentage phytotoxicity ALOMY
Method in brief: as §1

[8] = tested on: Amaranthus retroflexus (AMARE); assay: as above; settings: 312 h, 250 g/ha, evaluated after 13 days, read-out: percentage phytotoxicity AMARE
Method in brief: as §1

[9] = tested on: Echinochloa crus-galli (ECHCG); assay: as above; settings: 312 h, 250 g/ha, evaluated after 13 days, read-out: percentage phytotoxicity ECHCG
Method in brief: as §1

[10] = tested on: Ipomoea hederacea (IPOHE); assay: as above; settings: 312 h, 250 g/ha, evaluated after 13 days, read-out: percentage phytotoxicity IPOHE
Method in brief: as §1

Setaria faberi (SETFA) [11] = assay: as above; settings: 312 h, 250 g/ha, evaluated after 13 days, read-out: percentage phytotoxicity SETFA
Method in brief: as §1

Solanum nigrum (SOLNI) [12] = assay: as above; settings: 312 h, 250 g/ha, evaluated after 13 days, read-out: percentage phytotoxicity SOLNI
Method in brief: as §1

SMILES	pest or weed control at 250 g/ha [1] [%]	pest or weed control at 250 g/ha [2] [%]	pest or weed control at 250 g/ha [3] [%]	pest or weed control at 250 g/ha [4] [%]	pest or weed control at 250 g/ha (Setaria faberi (SETFA) [5]) [%]	pest or weed control at 250 g/ha (Solanum nigrum (SOLNI) [6]) [%]	pest or weed control at 250 g/ha [7] [%]	pest or weed control at 250 g/ha [8] [%]	pest or weed control at 250 g/ha [9] [%]	pest or weed control at 250 g/ha [10] [%]	pest or weed control at 250 g/ha (Setaria faberi (SETFA) [11]) [%]	pest or weed control at 250 g/ha (Solanum nigrum (SOLNI) [12]) [%]
CC#Cc1cc(C)c(C2C(=O)C3CCC(C3)C2=O)c(CCC)c1 (stereo not drawn) [Compound A-3]	100	0	100	40	100	0	90	10	100	0	90	20
CC#Cc1cc(Cl)c(C2C(=O)C3CCC(C3)C2=O)c(CC)c1 (stereo not drawn) [Compound A-4]	100	0	100	0	70	0	90	0	100	0	80	0
